Experimental data taken from patent US20230340011A1 (Asteroid Therapeutics, priority 2022, published 2023).

Molecular target: SREBP-2 (Homo sapiens (Human), UniProt Q12772)
Assay: In vitro assay SREBP-2: PathHunter U2OS SREBP-2 Nuclear Translocation Cell Line, U18666A-stimulated
Format: cell-based
Settings: PathHunter U2OS SREBP-2 nuclear translocation cells, U18666A 10 μM, overnight (16 hours)

| Compound | IC50 |
| --- | --- |
| CON(C(=O)CC[C@@H](C)[C@H]1CC[C@H]2[C@@H]3CC=C4C[C@@H](O)CC[C@]4(C)[C@H]3CC[C@]12C)C1CC1 [Example 36, (R)—N-cyclopropyl-4-((3S,8S,9S,10R,13R,14S,17R)-3-hydroxy-10,13-dimethyl-2,3,4,7,8,9,10,11,12,13,14,15,16,17-tetradecahydro-1H-cyclopenta[a]phenanthren-17-yl)-N-methoxypentanamide] | 250 to 1000 nM |
| C[C@H](CCC(=O)N1CC[C@H](CO)O1)[C@H]1CC[C@H]2[C@@H]3CC=C4C[C@@H](O)CC[C@]4(C)[C@H]3CC[C@]12C [Example 43, (R)-4-((3S,8S,9S,10R,13R,14S,17R)-3-hydroxy-10,13-dimethyl-2,3,4,7,8,9,10,11,12,13,14,15,16,17-tetradecahydro-1H-cyclopenta[a]phenanthren-17-yl)-1-((R)-5-(hydroxymethyl)isoxazolidin-2-yl)pentan-1-one] | 250 to 1000 nM |
| C=CCN1C[C@H]2CON(C(=O)CC[C@@H](C)[C@H]3CC[C@H]4[C@@H]5CC=C6C[C@@H](O)CC[C@]6(C)[C@H]5CC[C@]34C)[C@H]2C1 [Example 45, (R)-1-((3aR,6aR)-5-allylhexahydro-1H-pyrrolo[3,4-c]isoxazol-1-yl)-4-((3S,8S,9S,10R,13R,14S,17R)-3-hydroxy-10,13-dimethyl-2,3,4,7,8,9,10,11,12,13,14,15,16,17-tetradecahydro-1H-cyclopenta[a]phenanthren-17-yl)pentan-1-one] | 250 to 1000 nM |
| CC[C@H]1NC[C@@H]2CON(C(=O)CC[C@@H](C)[C@H]3CC[C@H]4[C@@H]5CC=C6C[C@@H](O)CC[C@]6(C)[C@H]5CC[C@]34C)[C@@H]21 [Example 47, (R)-1-((3aS,6R,6aS)-6-ethylhexahydro-1H-pyrrolo[3,4-c]isoxazol-1-yl)-4-((3S,8S,9S,10R,13R,14S,17R)-3-hydroxy-10,13-dimethyl-2,3,4,7,8,9,10,11,12,13,14,15,16,17-tetradecahydro-1H-cyclopenta[a]phenanthren-17-yl)pentan-1-one] | 250 to 1000 nM |
| CC[C@@H]1NC[C@@H]2CON(C(=O)CC[C@@H](C)[C@H]3CC[C@H]4[C@@H]5CC=C6C[C@@H](O)CC[C@]6(C)[C@H]5CC[C@]34C)[C@@H]21 [Example 48, (R)-1-((3aS,6S,6aS)-6-ethylhexahydro-1H-pyrrolo[3,4-c]isoxazol-1-yl)-4-((3S,8S,9S,10R,13R,14S,17R)-3-hydroxy-10,13-dimethyl-2,3,4,7,8,9,10,11,12,13,14,15,16,17-tetradecahydro-1H-cyclopenta[a]phenanthren-17-yl)pentan-1-one] | 250 to 1000 nM |
| C[C@H](CCC(=O)N1OCCC[C@@H]1C)[C@H]1CC[C@H]2[C@@H]3CC=C4C[C@@H](O)CC[C@]4(C)[C@H]3CC[C@]12C [Example 74, (R)-4-((3S,8S,9S,10R,13R,14S,17R)-3-hydroxy-10,13-dimethyl-2,3,4,7,8,9,10,11,12,13,14,15,16,17-tetradecahydro-1H-cyclopenta[a]phenanthren-17-yl)-1-((S)-3-methyl-1,2-oxazinan-2-yl)pentan-1-one] | < 250 nM |
| CC#CC1(O)CCN(C(=O)CC[C@@H](C)[C@H]2CC[C@H]3[C@@H]4CC=C5C[C@@H](O)CC[C@]5(C)[C@H]4CC[C@]23C)CC1 [Example 90, (R)-4-((3S,8S,9S,10R,13R,14S,17R)-3-hydroxy-10,13-dimethyl-2,3,4,7,8,9,10,11,12,13,14,15,16,17-tetradecahydro-1H-cyclopenta[a]phenanthren-17-yl)-1-(4-hydroxy-4-(prop-1-yn-1-yl)piperidin-1-yl)pentan-1-one] | < 250 nM |
| CCCCC1(O)CCN(C(=O)CC[C@@H](C)[C@H]2CC[C@H]3[C@@H]4CC=C5C[C@@H](O)CC[C@]5(C)[C@H]4CC[C@]23C)CC1 [Example 92, (R)-1-(4-butyl-4-hydroxypiperidin-1-yl)-4-((3S,8S,9S,10R,13R,14S,17R)-3-hydroxy-10,13-dimethyl-2,3,4,7,8,9,10,11,12,13,14,15,16,17-tetradecahydro-1H-cyclopenta[a]phenanthren-17-yl)pentan-1-one] | < 250 nM |
| CC(C)CC1(O)CCN(C(=O)CC[C@@H](C)[C@H]2CC[C@H]3[C@@H]4CC=C5C[C@@H](O)CC[C@]5(C)[C@H]4CC[C@]23C)CC1 [Example 93, (R)-4-((3S,8S,9S,10R,13R,14S,17R)-3-hydroxy-10,13-dimethyl-2,3,4,7,8,9,10,11,12,13,14,15,16,17-tetradecahydro-1H-cyclopenta[a]phenanthren-17-yl)-1-(4-hydroxy-4-isobutylpiperidin-1-yl) pentan-1-one] | < 250 nM |
| C[C@H](CCC(=O)NCC(=O)O)[C@H]1CC[C@H]2[C@@H]3CC=C4C[C@@H](O)CC[C@]4(C)[C@H]3CC[C@]12C [Example 107, ((R)-4-((3S,8S,9S,10R,13R,14S,17R)-3-hydroxy-10,13-dimethyl-2,3,4,7,8,9,10,11,12,13,14,15,16,17-tetradecahydro-1H-cyclopenta[a]phenanthren-17-yl)pentanoyl)glycine] | > 10000 nM |
| C[C@H](CCC(=O)N(C)CC(=O)O)[C@H]1CC[C@H]2[C@@H]3CC=C4C[C@@H](O)CC[C@]4(C)[C@H]3CC[C@]12C [Example 108, N—((R)-4-((3S,8S,9S,10R,13R,14S,17R)-3-hydroxy-10,13-dimethyl-2,3,4,7,8,9,10,11,12,13,14,15,16,17-tetradecahydro-1H-cyclopenta[a]phenanthren-17-yl)pentanoyl)-N-methylglycine] | > 10000 nM |
| CCN(CC(=O)O)C(=O)CC[C@@H](C)[C@H]1CC[C@H]2[C@@H]3CC=C4C[C@@H](O)CC[C@]4(C)[C@H]3CC[C@]12C [Example 109, N-ethyl-N—((R)-4-((3S,8S,9S,10R,13R,14S,17R)-3-hydroxy-10,13-dimethyl-2,3,4,7,8,9,10,11,12,13,14,15,16,17-tetradecahydro-1H-cyclopenta[a]phenanthren-17-yl)pentanoyl)glycine] | > 10000 nM |
| C[C@H](CCC(=O)N(C)C)[C@H]1CC[C@H]2[C@@H]3CC=C4C[C@H](O)CC[C@]4(C)[C@H]3CC[C@]12C [Example 122, (R)-4-((3R,8S,9S,10R,13R,14S,17R)-3-hydroxy-10,13-dimethyl-2,3,4,7,8,9,10,11,12,13,14,15,16,17-tetradecahydro-1H-cyclopenta[a]phenanthren-17-yl)-N,N-dimethylpentanamide] | > 10000 nM |
| C[C@H](CCC(=O)N1CCC(O)(C(F)F)CC1)[C@H]1CC[C@H]2[C@@H]3CC=C4C[C@@H](O)CC[C@]4(C)[C@H]3CC[C@]12C [Example 128, (R)-1-(4-(difluoromethyl)-4-hydroxypiperidin-1-yl)-4-((3S,8S,9S,10R,13R,14S,17R)-3-hydroxy-10,13-dimethyl-2,3,4,7,8,9,10,11,12,13,14,15,16,17-tetradecahydro-1H-cyclopenta[a]phenanthren-17-yl)pentan-1-one] | < 250 nM |
